# Measured values reported in publication PMC4503722, “Novel Phenotypic Outcomes Identified for a Public Collection of Approved Drugs from a Publicly Accessible Panel of Assays” (PLoS ONE, 2015).
# Like-named read-outs stand apart in the source and are kept apart here.
# What was measured:
# DLD-1 = test: cells; type: cell-based; settings: Homo sapiens
# NCI-H716 cells = test: cells; type: cell-based, Human
# [1] = tested on: nuclear β-catenin in C2C12 cells; test: cells; type: cell-based
# RKO = test: cells; type: cell-based
# hp70S6K1 (RPS6KB1) = target: T1, hp70S6K1 (RPS6KB1) (Homo sapiens, UniProt P23443); test: Cerep LANCE kinase assay hp70S6K1 (S1 assay 31); type: biochemical; settings: read-out: p70S6K1
# T1 construct: purchased Cerep (LANCE kinase assay platform, contract assay)
# hJAK2 = target: T2, hJAK2 (Homo sapiens, UniProt O60674); test: Cerep LANCE kinase assay hJAK2 (S1 assay 33); type: biochemical; settings: read-out: JAK2
# T2 construct: purchased Cerep (LANCE kinase assay platform, contract assay)
# HT-29 = test: cells; type: cell-based
# INS-1E cells = test: cells; type: cell-based, rat
# HCT116 = test: cells; type: cell-based; settings: Homo sapiens
# Colo320 = test: cells; type: cell-based; settings: Homo sapiens
# hFLT3 = target: T3, hFLT3 (Homo sapiens, UniProt P36888); test: Cerep LANCE kinase assay hFLT3 (S1 assay 35); type: biochemical; settings: read-out: FLT3
# T3 construct: purchased Cerep (LANCE kinase assay platform, contract assay)
# SNU-C1 = test: cells; type: cell-based; settings: Homo sapiens
# [2] = tested on: HCT116 cells treated with a GSK3β inhibitor; test: cells; type: cell-based; settings: Homo sapiens
# hGSK3b = target: T4, hGSK3b (Homo sapiens, UniProt P49841); test: Cerep LANCE kinase assay hGSK3b (S1 assay 34); type: biochemical; settings: read-out: GSK3b
# T4 construct: purchased Cerep (LANCE kinase assay platform, contract assay)
# SW480 = test: cells; type: cell-based; settings: Homo sapiens
# HeLa cells = test: cells; type: cell-based; settings: for EC50: Homo sapiens, HeLa, read-out: CellCycle G2/M
# hKDR = target: T5, hKDR (Homo sapiens, UniProt P35968); test: Cerep LANCE kinase assay hKDR (S1 assay 32); type: biochemical; settings: read-out: KDR
# T5 construct: purchased Cerep (LANCE kinase assay platform, contract assay)
# [3] = tested on: endothelial tube formation in co-cultures of ECFCs and ADSCs treated with VEGF; test: cells; type: cell-based, human
# [4] = DLD-1, read-out: Basal_Viability ATP DLD-1
# [5] = Homo sapiens, NCI-H716, read-out: GLP 1 Secretion
# [6] = Mus musculus, C2C12, read-out: Wnt Pathway
# [7] = Homo sapiens, RKO, read-out: Basal_Viability ATP RKO
# [8] = Homo sapiens, HT-29, read-out: Basal_Viability ATP HT-29
# [9] = Rattus norvegicus, INS-1E, read-out: Insulin Secretion
# [10] = HCT-116, read-out: Basal_Viability ATP HCT116
# [11] = COLO 320, read-out: Basal_Viability ATP Colo 320
# [12] = SNU-C1, read-out: Basal_Viability ATP SNU-C1
# [13] = HCT-116, read-out: GSK3b inh pretreated_Viability ATP HCT116
# [14] = SW480, read-out: Basal_Viability ATP SW480
# [15] = Homo sapiens, read-out: Anti-Angiogenesis
# [16] = DLD-1, 72 h, read-out: DLD-1 viab. IC50
# [17] = Homo sapiens, NCI-H716, read-out: GLP1 sec. EC50
# [18] = Mus musculus, C2C12, read-out: Wnt pot. EC50
# [19] = Homo sapiens, RKO, 72 h, read-out: RKO viab. IC50
# [20] = Homo sapiens, HT-29, 72 h, read-out: HT-29 viab. IC50
# [21] = Rattus norvegicus, INS-1E, read-out: Ins. sec. EC50
# [22] = HCT-116, 72 h, read-out: HCT-116 viab. IC50
# [23] = COLO 320, 72 h, read-out: Colo320 viab. IC50
# [24] = SNU-C1, 72 h, read-out: SNU-C1 viab. IC50
# [25] = HCT-116, 72 h, read-out: HCT-116 (GSK3β) viab. IC50
# [26] = SW480, 72 h, read-out: SW480 viab. IC50
# [27] = Homo sapiens, read-out: Anti-Angio IC50
# T3 sequence (P36888 27-993): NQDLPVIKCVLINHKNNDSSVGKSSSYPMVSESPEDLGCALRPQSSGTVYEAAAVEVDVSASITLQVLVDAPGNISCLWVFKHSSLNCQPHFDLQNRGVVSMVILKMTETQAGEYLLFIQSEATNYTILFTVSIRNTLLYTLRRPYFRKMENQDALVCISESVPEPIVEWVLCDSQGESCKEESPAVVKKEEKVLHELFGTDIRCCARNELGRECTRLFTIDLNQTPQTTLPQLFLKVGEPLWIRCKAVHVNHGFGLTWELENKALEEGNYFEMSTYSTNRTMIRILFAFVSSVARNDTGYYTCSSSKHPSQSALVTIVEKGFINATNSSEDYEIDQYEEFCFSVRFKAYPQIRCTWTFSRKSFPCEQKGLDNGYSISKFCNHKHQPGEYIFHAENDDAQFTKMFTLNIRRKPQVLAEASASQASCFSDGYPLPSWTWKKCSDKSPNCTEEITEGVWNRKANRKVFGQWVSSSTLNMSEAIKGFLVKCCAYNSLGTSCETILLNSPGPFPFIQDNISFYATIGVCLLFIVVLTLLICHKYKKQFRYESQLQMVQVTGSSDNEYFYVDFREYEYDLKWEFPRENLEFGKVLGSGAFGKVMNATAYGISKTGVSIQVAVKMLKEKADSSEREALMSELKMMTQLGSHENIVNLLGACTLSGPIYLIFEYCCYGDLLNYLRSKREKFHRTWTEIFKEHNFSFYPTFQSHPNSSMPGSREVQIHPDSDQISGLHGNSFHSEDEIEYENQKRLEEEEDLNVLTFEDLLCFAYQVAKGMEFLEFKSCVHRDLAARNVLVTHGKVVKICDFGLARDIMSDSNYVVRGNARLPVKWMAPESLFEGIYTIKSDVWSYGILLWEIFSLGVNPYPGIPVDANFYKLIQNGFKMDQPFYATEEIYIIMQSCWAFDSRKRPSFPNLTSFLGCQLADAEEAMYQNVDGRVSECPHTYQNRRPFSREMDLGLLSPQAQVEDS
# T4 sequence (P49841 whole entry): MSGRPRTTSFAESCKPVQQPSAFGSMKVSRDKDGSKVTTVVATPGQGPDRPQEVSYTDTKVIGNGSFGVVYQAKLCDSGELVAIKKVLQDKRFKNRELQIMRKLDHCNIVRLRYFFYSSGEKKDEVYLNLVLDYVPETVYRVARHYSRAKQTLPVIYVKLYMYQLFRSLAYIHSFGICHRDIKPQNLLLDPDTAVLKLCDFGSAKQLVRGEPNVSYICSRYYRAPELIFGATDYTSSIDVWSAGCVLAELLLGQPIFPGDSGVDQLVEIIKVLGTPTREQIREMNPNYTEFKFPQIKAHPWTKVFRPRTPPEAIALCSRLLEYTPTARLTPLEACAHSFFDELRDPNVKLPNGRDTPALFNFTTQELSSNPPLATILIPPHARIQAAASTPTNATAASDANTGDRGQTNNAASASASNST
# T1 sequence (P23443 whole entry): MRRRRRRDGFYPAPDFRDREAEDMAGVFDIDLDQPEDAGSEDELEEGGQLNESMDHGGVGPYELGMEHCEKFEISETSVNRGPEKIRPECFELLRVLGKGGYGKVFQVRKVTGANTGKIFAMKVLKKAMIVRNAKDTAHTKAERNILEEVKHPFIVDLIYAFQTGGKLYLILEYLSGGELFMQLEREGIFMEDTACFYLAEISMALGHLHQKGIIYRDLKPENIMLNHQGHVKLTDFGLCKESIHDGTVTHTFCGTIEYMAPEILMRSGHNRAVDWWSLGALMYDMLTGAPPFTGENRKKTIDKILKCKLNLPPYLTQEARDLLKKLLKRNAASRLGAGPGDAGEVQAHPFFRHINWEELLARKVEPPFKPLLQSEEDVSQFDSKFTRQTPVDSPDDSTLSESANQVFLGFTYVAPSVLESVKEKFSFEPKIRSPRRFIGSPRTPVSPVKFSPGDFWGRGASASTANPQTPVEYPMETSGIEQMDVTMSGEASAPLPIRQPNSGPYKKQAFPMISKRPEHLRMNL
# T2 sequence (O60674 whole entry): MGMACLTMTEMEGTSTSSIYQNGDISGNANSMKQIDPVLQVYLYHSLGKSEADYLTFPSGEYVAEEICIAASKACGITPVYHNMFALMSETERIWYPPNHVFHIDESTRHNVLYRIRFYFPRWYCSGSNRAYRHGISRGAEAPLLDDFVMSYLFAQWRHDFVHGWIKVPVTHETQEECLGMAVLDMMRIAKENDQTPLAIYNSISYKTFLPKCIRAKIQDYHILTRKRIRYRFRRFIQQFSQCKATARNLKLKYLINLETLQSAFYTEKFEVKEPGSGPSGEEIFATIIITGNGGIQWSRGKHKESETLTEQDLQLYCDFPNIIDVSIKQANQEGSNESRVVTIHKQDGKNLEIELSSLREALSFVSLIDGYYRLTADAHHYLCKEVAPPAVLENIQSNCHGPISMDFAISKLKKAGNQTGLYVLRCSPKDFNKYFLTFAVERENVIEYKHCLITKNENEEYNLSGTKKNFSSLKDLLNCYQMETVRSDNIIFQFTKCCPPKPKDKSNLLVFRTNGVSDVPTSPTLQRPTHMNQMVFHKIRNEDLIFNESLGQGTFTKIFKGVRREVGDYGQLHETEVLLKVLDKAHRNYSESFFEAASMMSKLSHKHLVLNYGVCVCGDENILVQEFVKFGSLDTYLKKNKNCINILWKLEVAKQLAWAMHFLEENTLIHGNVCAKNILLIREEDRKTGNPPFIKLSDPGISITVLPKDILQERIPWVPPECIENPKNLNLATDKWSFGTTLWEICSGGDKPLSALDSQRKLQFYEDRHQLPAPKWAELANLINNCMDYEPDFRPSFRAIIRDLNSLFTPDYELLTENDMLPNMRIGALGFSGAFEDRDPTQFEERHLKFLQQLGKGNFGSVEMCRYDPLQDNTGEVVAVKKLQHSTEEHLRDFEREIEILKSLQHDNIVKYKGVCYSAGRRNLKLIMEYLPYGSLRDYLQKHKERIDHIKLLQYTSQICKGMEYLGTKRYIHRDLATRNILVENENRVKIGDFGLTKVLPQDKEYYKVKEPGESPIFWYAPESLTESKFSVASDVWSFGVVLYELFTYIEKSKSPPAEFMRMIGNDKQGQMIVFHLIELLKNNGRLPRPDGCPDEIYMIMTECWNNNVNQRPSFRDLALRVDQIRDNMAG
# T5 sequence (P35968 20-1356): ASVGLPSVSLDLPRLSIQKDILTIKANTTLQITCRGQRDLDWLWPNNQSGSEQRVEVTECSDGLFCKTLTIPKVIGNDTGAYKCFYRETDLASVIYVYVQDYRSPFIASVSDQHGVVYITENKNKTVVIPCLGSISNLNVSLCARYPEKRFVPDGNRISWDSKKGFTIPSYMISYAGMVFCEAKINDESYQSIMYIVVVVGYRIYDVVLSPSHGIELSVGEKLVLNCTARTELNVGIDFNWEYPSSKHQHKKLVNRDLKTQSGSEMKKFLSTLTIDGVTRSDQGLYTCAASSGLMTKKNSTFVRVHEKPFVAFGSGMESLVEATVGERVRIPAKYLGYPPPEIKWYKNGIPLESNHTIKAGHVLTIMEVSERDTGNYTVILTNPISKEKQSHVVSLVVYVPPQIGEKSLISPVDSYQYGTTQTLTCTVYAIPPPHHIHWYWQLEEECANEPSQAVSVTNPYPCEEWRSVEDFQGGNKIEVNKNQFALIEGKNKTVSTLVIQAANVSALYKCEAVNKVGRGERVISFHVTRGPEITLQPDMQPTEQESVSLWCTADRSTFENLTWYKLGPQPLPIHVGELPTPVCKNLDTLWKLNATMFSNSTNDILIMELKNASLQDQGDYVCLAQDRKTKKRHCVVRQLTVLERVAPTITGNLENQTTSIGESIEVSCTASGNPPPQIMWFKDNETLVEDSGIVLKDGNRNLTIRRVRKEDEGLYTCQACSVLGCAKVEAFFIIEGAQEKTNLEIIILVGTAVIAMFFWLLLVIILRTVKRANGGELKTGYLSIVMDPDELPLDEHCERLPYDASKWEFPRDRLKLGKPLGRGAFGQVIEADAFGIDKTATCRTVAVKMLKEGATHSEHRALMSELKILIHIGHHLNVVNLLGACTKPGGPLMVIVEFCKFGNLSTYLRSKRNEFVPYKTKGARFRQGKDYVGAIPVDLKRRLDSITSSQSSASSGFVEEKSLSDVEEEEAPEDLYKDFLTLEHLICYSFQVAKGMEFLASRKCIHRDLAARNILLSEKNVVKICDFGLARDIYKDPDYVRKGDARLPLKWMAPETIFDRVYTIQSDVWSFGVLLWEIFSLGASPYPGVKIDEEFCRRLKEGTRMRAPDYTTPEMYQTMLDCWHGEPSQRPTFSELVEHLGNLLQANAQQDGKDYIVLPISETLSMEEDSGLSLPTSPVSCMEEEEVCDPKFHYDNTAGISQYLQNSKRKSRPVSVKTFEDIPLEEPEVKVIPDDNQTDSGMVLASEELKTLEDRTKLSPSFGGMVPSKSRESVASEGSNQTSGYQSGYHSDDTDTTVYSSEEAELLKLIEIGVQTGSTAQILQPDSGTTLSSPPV
smiles,measurement,setting,value
Nc1nc2nc[nH]c2c(=S)[nH]1 [Tioguanine],IC50,DLD-1; [4],0.108 µM
same,EC50,NCI-H716 cells; [5],> 10 µM
same,EC50,[1]; [6],> 10 µM
same,IC50,RKO; [7],0.343 µM
same,IC50,hp70S6K1 (RPS6KB1); kinase assay,> 20 µM
same,IC50,hJAK2; kinase assay,> 20 µM
same,IC50,HT-29; [8],0.0493 µM
same,EC50,INS-1E cells; [9],> 10 µM
same,IC50,HCT116; [10],0.139 µM
same,IC50,Colo320; [11],0.373 µM
same,IC50,hFLT3; kinase assay,> 20 µM
same,IC50,SNU-C1; [12],4.4 µM
same,IC50,[2]; [13],0.163 µM
same,IC50,hGSK3b; kinase assay,> 20 µM
same,IC50,SW480; [14],0.402 µM
same,EC50,HeLa cells,> 10 µM
same,IC50,hKDR; kinase assay,> 20 µM
same,IC50,[3]; [15],0.622 µM
Cc1cc(C2CCCCC2)n(O)c(=O)c1 [ciclopirox],IC50,DLD-1; [4],0.316 µM
same,EC50,NCI-H716 cells; [5],> 10 µM
same,EC50,[1]; [6],1.05 µM
same,IC50,RKO; [7],0.233 µM
same,IC50,hp70S6K1 (RPS6KB1); kinase assay,> 20 µM
same,IC50,hJAK2; kinase assay,> 20 µM
same,IC50,HT-29; [8],7.04 µM
same,EC50,INS-1E cells; [9],> 10 µM
same,IC50,HCT116; [10],0.656 µM
same,IC50,Colo320; [11],0.208 µM
same,IC50,hFLT3; kinase assay,> 20 µM
same,IC50,SNU-C1; [12],> 20 µM
same,IC50,[2]; [13],0.39 µM
same,IC50,hGSK3b; kinase assay,> 20 µM
same,IC50,SW480; [14],0.469 µM
same,EC50,HeLa cells,> 10 µM
same,IC50,hKDR; kinase assay,> 20 µM
same,IC50,[3]; [15],> 10 µM
O=C(O)c1ccc(-n2nc(-c3ccccc3O)nc2-c2ccccc2O)cc1 [deferasirox],IC50,DLD-1; [4],0.651 µM
same,EC50,NCI-H716 cells; [5],> 10 µM
same,EC50,[1]; [6],> 10 µM
same,IC50,RKO; [7],0.1 µM
same,IC50,hp70S6K1 (RPS6KB1),> 20 µM
same,IC50,hJAK2,18.2 µM
same,IC50,HT-29; [8],0.516 µM
same,EC50,INS-1E cells; [9],> 10 µM
same,IC50,HCT116; [10],0.438 µM
same,IC50,Colo320; [11],0.409 µM
same,IC50,hFLT3,> 20 µM
same,IC50,SNU-C1; [12],0.233 µM
same,IC50,[2]; [13],0.242 µM
same,IC50,hGSK3b,> 20 µM
same,IC50,SW480; [14],0.0776 µM
same,EC50,HeLa cells,> 10 µM
same,IC50,hKDR,> 20 µM
same,IC50,[3]; [15],2.09 µM
"Cc1nc(N)nc(N)c1-c1ccc(Cl)c(Cl)c1 [metoprine, reference compound]",IC50,DLD-1; [16],0.63 µM
same,IC50,DLD-1; [4],0.634 µM
same,EC50,NCI-H716 cells; [17],> 10 µM
same,EC50,[1]; [6],0.0299 µM
same,EC50,[1]; [18],0.03 µM
same,IC50,RKO; [19],0.12 µM
same,IC50,RKO; [7],0.117 µM
same,IC50,hp70S6K1 (RPS6KB1); kinase assay,> 20 µM
same,IC50,hJAK2; kinase assay,> 20 µM
same,IC50,HT-29; [20],0.93 µM
same,IC50,HT-29; [8],0.932 µM
same,EC50,INS-1E cells; [21],> 10 µM
same,IC50,HCT116; [22],0.41 µM
same,IC50,HCT116; [10],0.413 µM
same,IC50,Colo320; [23],2 µM
same,IC50,Colo320; [11],2.03 µM
same,IC50,hFLT3; kinase assay,> 20 µM
same,IC50,SNU-C1; [24],2.2 µM
same,IC50,SNU-C1; [12],2.16 µM
same,IC50,[2]; [25],0.059 µM
same,IC50,[2]; [13],0.0589 µM
same,IC50,hGSK3b; kinase assay,> 20 µM
same,IC50,SW480; [26],0.51 µM
same,IC50,SW480; [14],0.512 µM
same,EC50,HeLa cells,> 10 µM
same,IC50,hKDR; kinase assay,> 20 µM
same,IC50,[3]; [27],> 10 µM
O=C1c2c(O)ccc(O)c2C(=O)c2c(NCCNCCO)ccc(NCCNCCO)c21 [mitoxantrone],IC50,DLD-1; [4],1.6 µM
same,EC50,NCI-H716 cells; [5],> 10 µM
same,EC50,[1]; [6],0.0303 µM
same,IC50,RKO; [7],1.03 µM
same,IC50,hp70S6K1 (RPS6KB1); kinase assay,> 20 µM
same,IC50,hJAK2; kinase assay,> 20 µM
same,IC50,HT-29; [8],7.59 µM
same,EC50,INS-1E cells; [9],> 10 µM
same,IC50,HCT116; [10],1.23 µM
same,IC50,Colo320; [11],7.41 µM
same,IC50,hFLT3; kinase assay,> 20 µM
same,IC50,SNU-C1; [12],1.72 µM
same,IC50,[2]; [13],0.001 µM
same,IC50,hGSK3b; kinase assay,> 20 µM
same,IC50,SW480; [14],1.83 µM
same,EC50,HeLa cells,> 10 µM
same,IC50,hKDR; kinase assay,> 20 µM
same,IC50,[3]; [15],0.0044 µM
"Cc1ccc2nc(N)[nH]c(=O)c2c1Sc1ccncc1 [nolatrexed, reference compound]",IC50,DLD-1; [16],> 20 µM
same,EC50,"NCI-H716 cells; Homo sapiens, NCI-H716; read-out: GLP1 sec. EC50",> 10 µM
same,EC50,"[1]; Mus musculus, C2C12, IC50 / EC50; C2C12 beta-catenin translocation; read-out: Wnt Pathway",0.244 µM
same,EC50,"[1]; Mus musculus, C2C12; read-out: Wnt pot. EC50",0.24 µM
same,IC50,"RKO; Homo sapiens, RKO; Table 2; 72 h, Cell TiterGlo, non-adherent; 20 coded; read-out: RKO viab. IC50",0.34 µM
same,IC50,"RKO; Homo sapiens, RKO; read-out: Basal_Viability ATP RKO",0.343 µM
same,IC50,hp70S6K1 (RPS6KB1),17.8 µM
same,IC50,hJAK2,> 20 µM
same,IC50,"HT-29; Homo sapiens, HT-29; Table 2; 72 h, Cell TiterGlo, non-adherent; 20 coded; read-out: HT-29 viab. IC50",4.7 µM
same,IC50,"HT-29; Homo sapiens, HT-29; read-out: Basal_Viability ATP HT-29",4.75 µM
same,EC50,"INS-1E cells; Rattus norvegicus, INS-1E; read-out: Ins. sec. EC50",> 10 µM
same,IC50,"HCT116; HCT-116, 72 h, read-out: HCT-116 viab. IC50, Table 2, basal, 72 h, Cell TiterGlo, non-adherent, 20 coded",3.5 µM
same,IC50,"HCT116; HCT-116, basal, read-out: Basal_Viability ATP HCT116",3.5 µM
same,IC50,"Colo320; COLO 320, Table 2, 72 h, Cell TiterGlo, non-adherent, 20 coded, read-out: Colo320 viab. IC50",> 20 µM
same,IC50,hFLT3,> 20 µM
same,IC50,"SNU-C1; SNU-C1, 72 h, Table 2, 72 h, Cell TiterGlo, non-adherent, 20 coded, read-out: SNU-C1 viab. IC50",> 20 µM
same,IC50,[2]; [25],0.83 µM
same,IC50,[2]; [13],0.83 µM
same,IC50,hGSK3b,> 20 µM
same,IC50,"SW480; SW480, 72 h, Table 2, 72 h, Cell TiterGlo, non-adherent, 20 coded, read-out: SW480 viab. IC50",2.2 µM
same,IC50,"SW480; SW480, basal, read-out: Basal_Viability ATP SW480",2.24 µM
same,G2/M IC50 / EC50,HeLa cells,20 (values shown as 20 indicate that the compound was tested in concentration-response and showed no response at the highest concentration tested (e.g. IC50 > 20 μM))
same,EC50,HeLa cells; IC50 / EC50,> 10 µM
same,IC50,hKDR,> 20 µM
same,IC50,"[3]; Homo sapiens, IC50 / EC50; endothelial tube area, ADSC/ECFC co-culture; read-out: Anti-Angiogenesis",7.37 µM
same,IC50,[3]; Homo sapiens; read-out: Anti-Angio IC50,7.4 µM
"Cc1nc2ccc(CN(C)c3ccc(C(=O)N[C@@H](CCC(=O)O)C(=O)O)s3)cc2c(=O)[nH]1 [raltitrexed, reference compound]",IC50,DLD-1; [16],> 20 µM
same,EC50,NCI-H716 cells; [17],> 10 µM
same,EC50,[1]; [6],0.0042 µM
same,EC50,[1]; [18],0.004 µM
same,IC50,RKO; [19],0.003 µM
same,IC50,RKO; [7],0.00288 µM
same,IC50,hp70S6K1 (RPS6KB1),> 20 µM
same,IC50,hJAK2,> 20 µM
same,IC50,HT-29; [20],> 20 µM
same,EC50,INS-1E cells; [21],> 10 µM
same,IC50,HCT116; [22],0.004 µM
same,IC50,HCT116; [10],0.00424 µM
same,IC50,Colo320; [23],> 20 µM
same,IC50,hFLT3,> 20 µM
same,IC50,SNU-C1; [24],> 20 µM
same,IC50,[2]; [25],0.002 µM
same,IC50,[2]; [13],0.0023 µM
same,IC50,hGSK3b,3.99 µM
same,IC50,SW480; [26],0.001 µM
same,EC50,HeLa cells,> 10 µM
same,IC50,hKDR,> 20 µM
same,IC50,[3]; [27],0.35 µM
same,IC50,[3]; [15],0.354 µM
